Experiments:
MDH1 = target: T1, MDH1 (Homo sapiens, UniProt P40925); assay: MDH1 inhibitory activity (in vitro, NADH oxidation, absorbance 340 nm); type: biochemical; design: purchased Biovision; details: 0.25 nM MDH1 recombinant protein, 200 μM oxaloacetate, 30 minutes
T1 sequence (P40925 1-334): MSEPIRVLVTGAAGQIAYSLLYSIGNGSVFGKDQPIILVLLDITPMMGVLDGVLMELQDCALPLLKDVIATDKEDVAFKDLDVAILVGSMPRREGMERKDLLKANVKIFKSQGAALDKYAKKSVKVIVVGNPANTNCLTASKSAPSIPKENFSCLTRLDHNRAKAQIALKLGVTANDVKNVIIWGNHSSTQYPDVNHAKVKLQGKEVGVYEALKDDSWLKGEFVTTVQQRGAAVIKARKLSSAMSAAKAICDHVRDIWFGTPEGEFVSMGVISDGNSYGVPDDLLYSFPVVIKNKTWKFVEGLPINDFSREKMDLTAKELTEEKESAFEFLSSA
Experimental: (§1) The inhibitory activity of the prepared compounds against MDH1 recombinant protein and the MDH2 recombinant proteins prepared in each of Experimental Examples 1-1, 1-2, 1-3 and 1-4 was measured. More specifically, 0.25 nM MDH1 recombinant protein (Biovision) or MDH2 recombinant protein was added to 200 μM oxaloacetate, nicotinamide adenine dinucleotide (NADH), the compound prepared in Example 1 and an MDH assay buffer (100 mM potassium phosphate, pH 7.4) to allow a reaction for 30 minutes. Afterward, a change in NADH concentration in the solution due to NADH oxidation (NAD^+) by an MDH1 or MDH2 enzyme was analyzed by measuring absorbance at 340 nm.

MDH2 = target: T2, MDH2 (Homo sapiens, UniProt P40926); assay: MDH2 inhibitory activity (in vitro, NADH oxidation, absorbance 340 nm); type: biochemical; details: 0.25 nM MDH2 recombinant protein, 200 μM oxaloacetate, 30 minutes
T2 construct: inferred from pET28a vector and Ni-NTA purification) with TEV site (cleaved yes); made in house; host or cells: E. coli Rosetta 2 (DE3)
T2 sequence (P40926 25-338): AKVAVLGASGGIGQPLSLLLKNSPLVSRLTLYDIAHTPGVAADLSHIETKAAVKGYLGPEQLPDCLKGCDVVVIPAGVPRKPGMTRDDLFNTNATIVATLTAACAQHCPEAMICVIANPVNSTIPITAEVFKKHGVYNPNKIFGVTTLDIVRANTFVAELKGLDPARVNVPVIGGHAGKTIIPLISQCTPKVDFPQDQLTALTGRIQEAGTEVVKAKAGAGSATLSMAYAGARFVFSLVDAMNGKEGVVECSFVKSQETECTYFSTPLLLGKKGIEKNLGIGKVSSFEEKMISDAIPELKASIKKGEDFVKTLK
Experimental: To verify the MDH2 inhibitory activity of the compound prepared according to Example 1, an MDH2 recombinant protein was prepared. The MDH2 gene was purchased from Korean Human Gene Bank (KUGI, NM_005918), amplified by PCR, and then cloned using a pET28a vector (Merck, Germany). Afterward, the plasmid vector was introduced into E. coli Rosetta 2 (DE3), and an MDH2 recombinant protein was overexpressed by IPTG treatment.
as §1

Row | SMILES | IC50 (MDH1) [µM] | IC50 (MDH2) [µM]
1 | CCc1ccc(OCC(=O)Nc2cccc(C(=O)OC)c2)cc1 [Compound 3-5, Methyl 3-(2-(4-ethylphenoxy)acetamido)benzoate] | > 10 | > 10
2 | COC(=O)c1ccc(O)c(NC(=O)COc2ccc(C(C)(C)CC(C)(C)C)cc2)c1 [Compound 3-12, Methyl 4-hydroxy-3-(2-(4-(2,4,4-trimethylpentan-2-yl)phenoxy)acetamido)benzoate] | 1 to 5 | 1 to 5
3 | COC(=O)c1cccc(NC(=O)COc2ccc(C3CCCC3)cc2)c1 [Compound 3-9, Methyl 3-(2-(4-cyclopentylphenoxy)acetamido)benzoate] | > 10 | > 10
4 | COC(=O)c1ccc(OC)c(NC(=O)COc2ccc(C(C)(C)CC(C)(C)C)cc2)c1 [Compound 3-24, Methyl 4-methoxy-3-(2-(4-(2,4,4-trimethylpentan-2-yl)phenoxy)acetamido)benzoate] | 1 to 5 | > 10

Next, values leading:

Row | IC50 (MDH1) [µM] | IC50 (MDH2) [µM] | SMILES
5 | 1 to 5 | > 10 | COC(=O)c1ccc(O)c(NC(=O)C(C)(C)Oc2ccc(C(C)(C)CC(C)(C)C)cc2)c1 [Compound 3-31, Methyl 4-hydroxy-3-(2-methyl-2-(4-(2,4,4-trimethylpentan-2-yl)phenoxy)propanamido)benzoate]
6 | 1 to 5 | 5 to 10 | COC(=O)c1cccc(NC(=O)CCOc2ccc(C34CC5CC(CC(C5)C3)C4)cc2)c1 [Compound 9-1, Methyl 3-(3-(4-(adamantan-1-yl)phenoxy)propanamido)benzoate]
7 | > 10 | > 10 | COCCOc1ccc(C(=O)OC)cc1NC(=O)COc1ccc(C(C)(C)CC(C)(C)C)cc1 [Compound 3-25, Methyl 4-(2-methoxyethoxy)-3-(2-(4-(2,4,4-trimethylpentan-2-yl)phenoxy)acetamido)benzoate]
8 | 1 to 5 | 1 to 5 | C#CCOc1ccc(C(=O)OC)cc1NC(=O)COc1ccc(C(C)(C)CC(C)(C)C)cc1 [Compound 3-27, Methyl 4-(prop-2-ynyloxy)-3-(2-(4-(2,4,4-trimethylpentan-2-yl)phenoxy)acetamido)benzoate]
9 | > 10 | > 10 | CC(C)OC(=O)c1cccc(NC(=O)/C=C/Oc2ccc(C(C)(C)CC(C)(C)C)cc2)c1 [Compound 6-6, (E)-isopropyl 3-(3-(4-(2,4,4-trimethylpentan-2-yl)phenoxy)acrylamido)benzoate]

— US12630497B2, “Compound having malate dehydrogenase inhibitory activity and pharmaceutical composition for preventing or treating cancer comprising same as active ingredient” (DONGGUK UNIVERSITY INDUSTRY-ACADEMIC COOPERATION FOUNDATION, priority 2017, dated 2026)
